# What was measured:
# PC-3 cells = assay: MTT assay anticancer activity, PC-3; type: cell-based; details: Homo sapiens, PC-3, 5 µM, mean ± SEM, read-out: growth inhibition percentage of PC-3
# Description: MTT method was done as described above.
# EKVX = assay: NCI anticancer screening, Non-Small Cell Lung Cancer EKVX; type: cell-based; details: Homo sapiens, read-out: % Growth Inhibition (GI %)
# Description: (§1) The compound has been processed according to standard method NCI-60 Human Tumor Cell Lines Screen for organic compound at development therapeutic program (DTP). Requests for access to this national resource can be submitted online at: […]
# TK-10 = assay: NCI anticancer screening, Renal Cancer TK-10; type: cell-based; details: Homo sapiens; TK-10, 10 μM; read-out: % Growth Inhibition (GI %)
# Description: as §1
# SF-268 = assay: NCI anticancer screening, CNS Cancer SF-268; type: cell-based; details: Homo sapiens; SF-268, 10 μM; read-out: % Growth Inhibition (GI %)
# Description: as §1
# HL-60(TB) = assay: NCI anticancer screening, Leukemia HL-60(TB); type: cell-based; details: Homo sapiens, read-out: % Growth Inhibition (GI %)
# Description: as §1
# HOP-62 = assay: NCI anticancer screening, Non-Small Cell Lung Cancer HOP-62; type: cell-based; details: Homo sapiens; HOP-62, 10 μM; read-out: % Growth Inhibition (GI %)
# Description: as §1
# NCI/ADR-RES = assay: NCI anticancer screening, Ovarian Cancer NCI/ADR-RES; type: cell-based; details: Homo sapiens, read-out: % Growth Inhibition (GI %)
# Description: as §1
# MDA-MB 231 cells = details: for inhibition: 5 µM
# Description: Anticancer effect of the above-mentioned compounds was assayed using three human cancer cell lines. Triple negative breast cancer cell line (MDA-MB 231) and prostate cancer cell line (PC3) were cultured in DMEM (Lonza, USA) supplemented with 10% FBS. All cancer cells (4x10^3 cells/well) were seeded in sterile 96-well plates. After 24h, serial concentrations of the tested compounds were incubated with three cancer cell lines for 72 h at 37 °C in 5% CO2 incubator. […] The half maximal inhibitory concentration (IC50) values were calculated using the Graphpad Instat software.
# MDA-MB-435 = assay: NCI anticancer screening, Melanoma MDA-MB-435; type: cell-based; details: Homo sapiens; MDA-MB-435, 10 μM; read-out: % Growth Inhibition (GI %)
# Description: as §1
# RXF 393 = assay: NCI anticancer screening, Renal Cancer RXF 393; type: cell-based; details: Homo sapiens; RXF 393, 10 μM; read-out: % Growth Inhibition (GI %)
# Description: as §1
# DU-145 = assay: NCI anticancer screening, DU-145; type: cell-based; details: Homo sapiens; DU-145, 10 μM; read-out: % Growth Inhibition (GI %)
# Description: as §1
# SF-295 = assay: NCI anticancer screening, CNS Cancer SF-295; type: cell-based; details: Homo sapiens; SF-295, 10 μM; read-out: % Growth Inhibition (GI %)
# Description: as §1
# HCT-116 = assay: NCI anticancer screening, Colon Cancer HCT-116; type: cell-based; details: Homo sapiens; HCT-116, 10 μM; read-out: % Growth Inhibition (GI %)
# Description: as §1
# OVCAR-8 = assay: NCI anticancer screening, Ovarian Cancer OVCAR-8; type: cell-based; details: Homo sapiens; OVCAR-8, 10 μM; read-out: % Growth Inhibition (GI %)
# Description: as §1
# NCI-H226 = assay: NCI anticancer screening, Non-Small Cell Lung Cancer NCI-H226; type: cell-based; details: Homo sapiens; NCI-H226, 10 μM; read-out: % Growth Inhibition (GI %)
# Description: as §1
# U251 = assay: NCI anticancer screening, CNS Cancer U251; type: cell-based; details: Homo sapiens, U-251; U251, 10 μM; read-out: % Growth Inhibition (GI %)
# Description: as §1
# SK-MEL-5 = assay: NCI anticancer screening, Melanoma SK-MEL-5; type: cell-based; details: Homo sapiens; SK-MEL-5, 10 μM; read-out: % Growth Inhibition (GI %)
# Description: as §1
# CCRF-CEM = assay: NCI anticancer screening, Leukemia CCRF-CEM; type: cell-based; details: Homo sapiens, read-out: % Growth Inhibition (GI %)
# Description: as §1
# SW-620 = assay: NCI anticancer screening, Colon Cancer SW-620; type: cell-based; details: Homo sapiens; SW-620, 10 μM; read-out: % Growth Inhibition (GI %)
# Description: as §1
# KM12 = assay: NCI anticancer screening, Colon Cancer KM12; type: cell-based; details: Homo sapiens; KM12, 10 μM; read-out: % Growth Inhibition (GI %)
# Description: as §1
# SNB-75 = assay: NCI anticancer screening, CNS Cancer SNB-75; type: cell-based; details: Homo sapiens; SNB-75, 10 μM; read-out: % Growth Inhibition (GI %)
# Description: as §1
# HOP-92 = assay: NCI anticancer screening, Non-Small Cell Lung Cancer HOP-92; type: cell-based; details: Homo sapiens; HOP-92, 10 μM; read-out: % Growth Inhibition (GI %)
# Description: as §1
# 786-0 = assay: NCI anticancer screening, Renal Cancer 786-0; type: cell-based; details: Homo sapiens; 786-0, 10 μM; read-out: % Growth Inhibition (GI %)
# Description: as §1
# SNB-19 = assay: NCI anticancer screening, CNS Cancer SNB-19; type: cell-based; details: Homo sapiens; SNB-19, 10 μM; read-out: % Growth Inhibition (GI %)
# Description: as §1
# SN12C = assay: NCI anticancer screening, Renal Cancer SN12C; type: cell-based; details: Homo sapiens, read-out: % Growth Inhibition (GI %)
# Description: as §1
SMILES,inhibition at 5 µM (PC-3 cells),inhibition at 10 µM (EKVX),inhibition at 10 µM (TK-10),inhibition at 10 µM (SF-268),inhibition at 10 µM (HL-60(TB)),inhibition at 10 µM (HOP-62),inhibition at 10 µM (NCI/ADR-RES),IC50 (MDA-MB 231 cells),inhibition (MDA-MB 231 cells),inhibition at 10 µM (MDA-MB-435),inhibition at 10 µM (RXF 393),inhibition at 10 µM (DU-145),inhibition at 10 µM (SF-295),inhibition at 10 µM (HCT-116),inhibition at 10 µM (OVCAR-8),inhibition at 10 µM (NCI-H226),inhibition at 10 µM (U251),inhibition at 10 µM (SK-MEL-5),inhibition at 10 µM (CCRF-CEM),inhibition at 10 µM (SW-620),also measured
"O=C(c1nc2ccccc2[nH]1)[C@H]1[C@H](c2ccccc2O)C2CSCN2[C@]12C(=O)Nc1ccccc12 (stereo partly drawn) [Compound 6j, (3S,6′R)-6'-(1H-Benzo [d]imidazole-2-carbonyl)-7'-(2-hydroxyphenyl)-3′,6′,7′,7a′-tetrahydro-1′H-spiro [indoline-3.5′-pyrrolo [1,2-c]thiazol]-2-one]",40.3 ± 3.44%,91.6%,115%,91.7%,103%,85.2%,95.9%,4.665 ± 0.009 µM,40.8 ± 1.63%,92.7%,88.2%,98.7%,96.3%,96.3%,97.7%,91.3%,95.8%,94%,101%,95.4%,inhibition at 10 µM (KM12): 82.5%; inhibition at 10 µM (SNB-75): 73.1%; inhibition at 10 µM (HOP-92): 97.3%; inhibition at 10 µM (786-0): 106%; inhibition at 10 µM (SNB-19): 93.7%; inhibition at 10 µM (SN12C): 94.3%
"CN(C)c1ccc([C@@H]2C3CSCN3[C@]3(C(=O)Nc4ccccc43)[C@H]2C(=O)c2nc3ccccc3[nH]2)cc1 (stereo partly drawn) [Compound 6k, (3S,6′R)-6'-(1H-Benzo [d]imidazole-2-carbonyl)-7'-(4-(dimethylamino)phenyl)-3′,6′,7′,7a′-tetrahydro-1′H-spiro [indoline-3.5′-pyrrolo [1,2-c]thiazol]-2-one]",41.6 ± 0.729%,91.4%,111%,92.1%,99.5%,95.7%,96%,4 ± 0.249 µM,37.6 ± 2.61%,96.8%,99.7%,104%,103%,102%,105%,91.4%,103%,98.2%,99.9%,100%,inhibition at 10 µM (KM12): 95.7%; inhibition at 10 µM (SNB-75): 88.3%; inhibition at 10 µM (HOP-92): 104%; inhibition at 10 µM (786-0): 103%; inhibition at 10 µM (SNB-19): 91.7%; inhibition at 10 µM (SN12C): 94%

# From PMC11033320, “Activation of p53 signaling and regression of breast and prostate carcinoma cells by spirooxindole-benzimidazole small molecules” (Frontiers in Pharmacology, 2024)
